33 molecules from ChEMBL document CHEMBL5143511, “Positioning of an unprecedented 1,5-oxaza spiroquinone scaffold into SMYD2 inhibitors in epigenetic space” (Eur J Med Chem, 2022) can be followed below.

Molecules are shown by their SMILES. Bounds are passed on as bounds.

The target in data set [1] is T1, N-lysine methyltransferase SMYD2 (Homo sapiens, UniProt Q9NRG4). Kind of data set: Inhibition of SMYD2 (unknown origin) using 3H-SAM as substrate incubated for 1 hr by filter binding method.
Data set [2] addresses T1, N-lysine methyltransferase SMYD2. Briefly: Inhibition of SMYD2 (unknown origin) assessed as residual activity at 10 uM using 3H-SAM as substrate incubated for 1 hr by filter binding method relative to control.
In the next data set the test system is Ca-Ski. Kind of data set: cells. The following applies: Homo sapiens, 72 h. The data set is classed as functional, cell-based.
The next data set deals with MDA-MB-231. Kind of data set: Antiproliferative activity against human MDA-MB-231 cells assessed as inhibition of cell growth incubated for 72 hrs by CellTiter-Glo luminescent cell viability assay. Format: functional, cell-based. The following applies: MDA-MB-231, 72 h. A general note: ATP-based viability assays read luminescence as a measure of living cells.
The next data set concerns HEK293. Briefly: Induction of apoptosis in HEK293 cells assessed as increase in cleaved PARP level incubated for 24 hrs by immunoblot analysis. Format: toxicity, cell-based. The following applies: human, hek293, 24 h, DDE = dose-dependent effect, dose 0.0195-10 µM. (In general: A western blot detects proteins with antibodies after separation by electrophoresis.)

T1 sequence (Q9NRG4 whole entry): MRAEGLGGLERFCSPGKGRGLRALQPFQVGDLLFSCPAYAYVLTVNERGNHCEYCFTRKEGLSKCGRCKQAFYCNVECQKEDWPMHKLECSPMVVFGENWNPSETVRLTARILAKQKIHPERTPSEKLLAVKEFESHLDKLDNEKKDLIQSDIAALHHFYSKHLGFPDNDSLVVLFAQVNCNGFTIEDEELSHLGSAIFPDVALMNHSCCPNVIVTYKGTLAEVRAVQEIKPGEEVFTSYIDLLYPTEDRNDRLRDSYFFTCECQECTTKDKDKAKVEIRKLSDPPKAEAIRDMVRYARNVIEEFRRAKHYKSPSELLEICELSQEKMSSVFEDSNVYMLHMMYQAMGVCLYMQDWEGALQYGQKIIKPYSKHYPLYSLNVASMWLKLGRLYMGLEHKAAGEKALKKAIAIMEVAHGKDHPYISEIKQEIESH
Description for Ca-Ski: Antiproliferative activity against human Ca-Ski cells assessed as inhibition of cell growth incubated for 72 hrs by CellTiter-Glo luminescent cell viability assay

The IC50 is the midpoint of a concentration-inhibition curve. The molecule `O=C1COc2c([C@@H](O)CNCCN(C(=O)CCNCCc3ccc(Cl)c(Cl)c3)C3CCCCC3)ccc(O)c2N1` registered a half-maximal inhibitory concentration (IC50) in data set [1] of 0.003 µM.
The molecule `CN1C(=O)C(CCNc2ccc(F)cc2)COC12C=CC(=O)C=C2` (stereo unspecified) showed a half-maximal inhibitory concentration (IC50) in data set [1] of 11.6 µM. Further, the Activity in data set [2] is 20.6%.
For `CN1C(=O)C(CCNc2cc(F)cc(C(F)(F)F)c2)COC12C=CC(=O)C=C2` (stereo unspecified), in that order: 7.52 µM and 53.5%.
In the case of `C=CCC1COC2(C=CC(=O)C=C2)N(C(C)C)C1=O` (stereo unspecified), the IC50 in data set [1] was above 20 µM. The Activity in data set [2] stood at 101%.
Regarding `CC(C)N1C(=O)C(Cc2ccc(C#N)cc2)COC12C=CC(=O)C=C2` (stereo unspecified), the IC50 in data set [1] was above 20 µM. In addition, in data set [2], the Activity came out at 80.7%.
In data set [1], `CN1C(=O)C(CCO[Si](c2ccccc2)(c2ccccc2)C(C)(C)C)COC12C=CC(=NNc1ccccc1)C=C2` (stereo unspecified) yielded an IC50 of 5.8 µM.
As to `COc1ccc(N2CCCCC2)c(NCCC2COC3(C=CC(=O)C=C3)N(C)C2=O)c1` (stereo unspecified), the IC50 in data set [1] came out at 5.55 µM. In addition, in data set [2], the Activity is 14.2%.
In data set [1], `CC(C)[Si](OCCC1COC2(C=CC(=O)C=C2)N(C)C1=O)(C(C)C)C(C)C` (stereo unspecified) came in with an IC50 of 0.678 µM.
In the case of `CN1C(=O)C(CCNc2cc(C(F)(F)F)cc(C(F)(F)F)c2)COC12C=CC(=O)C=C2` (stereo unspecified), the IC50 in the data set on Ca-Ski was 0.785 µM; in data set [1] it was 2.13 µM; in the data set with MDA-MB-231, 0.667 µM. Also, the Activity in data set [2] worked out at 6.94%.
As to `CC(C)N1C(=O)C(Cc2cc(C(F)(F)F)cc(C(F)(F)F)c2)COC12C=CC(=O)C=C2` (stereo unspecified), the half-inhibitory concentration (IC50) with Ca-Ski came to 0.733 µM; in data set [1], 2.39 µM; in the data set on MDA-MB-231, 1.03 µM. Besides, the values for the Activity entry (with HEK293; in data set [2]) were “Dde” and 6.72%, respectively.
In the case of `O=C1C=CC2(C=C1)OCC(Cc1cc(C(F)(F)F)cc(C(F)(F)F)c1)C(=O)N2c1ccccc1` (stereo unspecified), the concentration for half-maximal inhibition (IC50) was found to be 0.879 µM in the data set with Ca-Ski, 18.5 µM in data set [1] and 1.64 µM in the data set with MDA-MB-231.
The molecule `CC1COC2(C=CC(=O)C=C2)N(C(C)C)C1=O` (stereo unspecified) registered an IC50 in data set [1] above 20 µM. Further, the Activity in data set [2] worked out at 96.5%.
Regarding `CN1C(=O)C(CCNc2cnc3ccccc3c2)COC12C=CC(=O)C=C2` (stereo unspecified), the IC50 in data set [1] was above 20 µM. The Activity in data set [2] was determined as 64.6%.
Turning to `CN1C(=O)C(CCNc2ccc(C(=O)c3ccccc3)cc2)COC12C=CC(=O)C=C2` (stereo unspecified), the IC50 in data set [1] is above 20 µM. The Activity in data set [2] stood at 44.6%.
As for `CN1C(=O)C(CCNc2ccc(-c3cccs3)cc2)COC12C=CC(=O)C=C2` (stereo unspecified), the IC50 in data set [1] was determined as 2.31 µM. Besides, the Activity in data set [2] came to 16.1%.
For `CN[C@@H]1C[C@H]2O[C@@](C)([C@@H]1OC)n1c3ccccc3c3c4c(c5c6ccccc6n2c5c31)C(=O)NC4` [STAUROSPORINE], in the data set with MDA-MB-231, the IC50 worked out at 0.000858 µM.
`CN1C(=O)C(CCNc2cccnc2)COC12C=CC(=O)C=C2` (stereo unspecified) had an IC50 in data set [1] above 20 µM. Also, the Activity in data set [2] worked out at 74.2%.
For the molecule `CN1C(=O)C(CCO[Si](C)(C)C(C)(C)C)COC12C=CC(=O)C=C2` (stereo unspecified), the half-inhibitory concentration (IC50) in data set [1] is above 30 µM.
For the molecule `CN1C(=O)C(CCNc2cccc(Cc3ccccc3)c2)COC12C=CC(=O)C=C2` (stereo unspecified), the IC50 in data set [1] is 6.2 µM. Further, in data set [2], the Activity was determined as 13.6%.
As for `CN1C(=O)C(CCNc2ccccc2)COC12C=CC(=O)C=C2` (stereo unspecified), in data set [1], the IC50 was above 20 µM. Besides, in data set [2], the Activity came to 45.1%.
The like results for `CC(C)N1C(=O)C(Cc2cccc(Br)c2)COC12C=CC(=O)C=C2` (stereo unspecified) were, in that order, above 20 µM and 42.5%.
For `CC(C)N1C(=O)C(Cc2ccc(C(F)(F)F)cc2)COC12C=CC(=O)C=C2` (stereo unspecified), in that order: above 20 µM and 33.8%.
Consider `CN1C(=O)C(C/C=N/n2c3ccccc3c3ccccc32)COC12C=CC(=O)C=C2` (stereo unspecified), for which the IC50 in the data set on Ca-Ski stood at 0.927 µM; in data set [1] it was 3.06 µM; in the data set with MDA-MB-231, 1.08 µM. The Activity in data set [2] turned out to be 19.9%.
With `CC(C)N1C(=O)C(Cc2ccc(Cl)cc2)COC12C=CC(=O)C=C2` (stereo unspecified), in data set [1], the IC50 was above 20 µM. In addition, the Activity in data set [2] turned out to be 41.4%.
For the molecule `CC(C)N1C(=O)C(CCO[Si](c2ccccc2)(c2ccccc2)C(C)(C)C)COC12C=CC(=O)C=C2` (stereo unspecified), the IC50 in data set [1] came to 0.399 µM.
Regarding `CC(C)N1C(=O)C(Cc2ccccc2CS(=O)(=O)c2ccccc2)COC12C=CC(=O)C=C2` (stereo unspecified), the half-maximal inhibitory concentration (IC50) in data set [1] was above 20 µM. Besides, in data set [2], the Activity is 50.4%.
On to `CN1C(=O)C(CCO)COC12C=CC(=O)C=C2` (stereo unspecified), for which the IC50 in data set [1] is above 30 µM.
With `CC(C)N1C(=O)C(Cc2cc(C(F)(F)F)ccc2Cl)COC12C=CC(=O)C=C2` (stereo unspecified), in data set [1], the IC50 is above 20 µM. Besides, the Activity in data set [2] came to 27.8%.
Take `N#Cc1cccc(-n2cc(CC3COC4(C=CC(=O)C=C4)N(c4ccccc4)C3=O)nn2)c1` (stereo unspecified): the IC50 in data set [1] is above 30 µM.
As to `CN1C(=O)C(CCNc2ccc(Cl)c(Cl)c2)COC12C=CC(=O)C=C2` (stereo unspecified), in data set [1], the IC50 turned out to be 3.82 µM. Moreover, in data set [2], the Activity was determined as 12.6%.
`CC(C)N1C(=O)C(Cc2c(F)cccc2C(F)(F)F)COC12C=CC(=O)C=C2` (stereo unspecified) came in with an IC50 in data set [1] above 20 µM. The Activity in data set [2] stood at 47.2%.
The like results for `CC(C)N1C(=O)C(Cc2ccc([N+](=O)[O-])cc2)COC12C=CC(=O)C=C2` (stereo unspecified) were, in that order, above 20 µM and 66.7%.
For `CC(C)N1C(=O)C(Cc2ccc(F)cc2)COC12C=CC(=O)C=C2` (stereo unspecified), in that order: above 20 µM and 36%.
